Test results as given in ChEMBL document CHEMBL1649448, “Atorvastatin is a promising partner for antimalarial drugs in treatment of Plasmodium falciparum malaria” (Antimicrob Agents Chemother, 2009).

Key:
Assay type in all cases: functional, organism-based
Plasmodium falciparum [1] = assay: Antimalarial activity against Plasmodium falciparum W2 assessed as incorporation of [3H]hypoxanthine after 48 hrs by scintillation counter
Plasmodium falciparum [2] = assay: Antimalarial activity against Plasmodium falciparum D6 assessed as incorporation of [3H]hypoxanthine after 48 hrs by scintillation counter
Plasmodium falciparum [3] = assay: Antimalarial activity against Plasmodium falciparum FCM29 assessed as incorporation of [3H]hypoxanthine after 48 hrs by scintillation counter
Plasmodium falciparum [4] = assay: Antimalarial activity against Plasmodium falciparum PA assessed as incorporation of [3H]hypoxanthine after 48 hrs by scintillation counter
Plasmodium falciparum [5] = assay: Antimalarial activity against Plasmodium falciparum HB3 assessed as incorporation of [3H]hypoxanthine after 48 hrs by scintillation counter
Plasmodium falciparum [6] = assay: Antimalarial activity against Plasmodium falciparum IMT Guy assessed as incorporation of [3H]hypoxanthine after 48 hrs by scintillation counter
Plasmodium falciparum [7] = assay: Antimalarial activity against Plasmodium falciparum IMT 31 assessed as incorporation of [3H]hypoxanthine after 48 hrs by scintillation counter
Plasmodium falciparum [8] = assay: Antimalarial activity against Plasmodium falciparum IMT 10500 assessed as incorporation of [3H]hypoxanthine after 48 hrs by scintillation counter
Plasmodium falciparum [9] = assay: Antimalarial activity against Plasmodium falciparum IMT 16332 assessed as incorporation of [3H]hypoxanthine after 48 hrs by scintillation counter
Plasmodium falciparum [10] = assay: Antimalarial activity against Plasmodium falciparum IMT K14 assessed as incorporation of [3H]hypoxanthine after 48 hrs by scintillation counter
Plasmodium falciparum [11] = assay: Antimalarial activity against Plasmodium falciparum IMT K2 assessed as incorporation of [3H]hypoxanthine after 48 hrs by scintillation counter
Plasmodium falciparum [12] = assay: Antimalarial activity against Plasmodium falciparum IMT K4 assessed as incorporation of [3H]hypoxanthine after 48 hrs by scintillation counter
Plasmodium falciparum [13] = assay: Antimalarial activity against Plasmodium falciparum IMT L1 assessed as incorporation of [3H]hypoxanthine after 48 hrs by scintillation counter
Plasmodium falciparum [14] = assay: Antimalarial activity against Plasmodium falciparum IMT Vol assessed as incorporation of [3H]hypoxanthine after 48 hrs by scintillation counter
Plasmodium falciparum [15] = assay: Antimalarial activity against Plasmodium falciparum 3D7 harboring Ppcrt I371R mutant gene and Pfnhe-1 ms4760 microsatellite mutant assessed as incorporation of [3H]hypoxanthine after 48 hrs by scintillation counter
Plasmodium falciparum [16] = assay: Antimalarial activity against Plasmodium falciparum W2 harboring Ppcrt M74I, N75E, K76T, A220S, Q271E, N326S and I356T mutant gene, Pmdr1 N86Y mutant gene and Pfmrp H191Y and S437A mutant gene assessed as incorporation of [[3H]hypoxanthine after 48 hrs by scintillation counter
Plasmodium falciparum [17] = assay: Antimalarial activity against Plasmodium falciparum D6 harboring Ppcrt I371R mutant gene assessed as incorporation of [3H]hypoxanthine after 48 hrs by scintillation counter
Plasmodium falciparum [18] = assay: Antimalarial activity against Plasmodium falciparum FCM29 harboring Ppcrt M74I, N75E, K76T, A220S, Q271E, N326S and I356T mutant gene, Pmdr1 N86Y mutant gene and Pfmrp H191Y and S437A mutant gene assessed as incorporation of [3H]hypoxanthine after 48 hrs by scintillation counter
Plasmodium falciparum [19] = assay: Antimalarial activity against Plasmodium falciparum PA harboring Ppcrt M74I, N75E, K76T, A220S, Q271E, N326S and I356T mutant gene, Pmdr1 N86Y mutant gene and Pfmrp H191Y and S437A mutant gene assessed as incorporation of [3H]hypoxanthine after 48 hrs by scintillation counter
Plasmodium falciparum [20] = assay: Antimalarial activity against Plasmodium falciparum 106/1 harboring Ppcrt M74I, N75E, K76T, A220S, Q271E, N326S and I356T mutant gene, Pmdr1 N86Y mutant gene and Pfmrp H191Y and S437A mutant gene assessed as incorporation of [3H]hypoxanthine after 48 hrs by scintillation counter
Plasmodium falciparum [21] = assay: Antimalarial activity against Plasmodium falciparum IMT Bres harboring Ppcrt M74I, N75E, K76T, A220S, Q271E, N326S and I356T mutant gene, Pmdr1 N86Y mutant gene and Pfmrp H191Y and S437A mutant gene assessed as incorporation of [3H]hypoxanthine after 48 hrs by scintillation counter
Plasmodium falciparum [22] = assay: Antimalarial activity against Plasmodium falciparum IMT Guy harboring Ppcrt K76T, A220S, N326D and I371R mutant gene, Pmdr1 T184FN, 1042D and D1246Y, mutant gene and Pfmrp H191Y and S437A mutant gene and Pfnhe-1 ms4760 microsatellite mutant assessed as incorporation of [3H]hypoxanthine after 48 hrs by scintillation counter
Plasmodium falciparum [23] = assay: Antimalarial activity against Plasmodium falciparum IMT 31 harboring Ppcrt I371R mutant gene assessed as incorporation of [3H]hypoxanthine after 48 hrs by scintillation counter
Plasmodium falciparum [24] = assay: Antimalarial activity against Plasmodium falciparum IMT 9881 harboring Ppcrt I371R mutant gene assessed as incorporation of [3H]hypoxanthine after 48 hrs by scintillation counter
Plasmodium falciparum [25] = assay: Antimalarial activity against Plasmodium falciparum IMT 10336 harboring Pfcrt Q271E mutant gene and Ppcrt I371R mutant gene assessed as incorporation of [3H]hypoxanthine after 48 hrs by scintillation counter
Plasmodium falciparum [26] = assay: Antimalarial activity against Plasmodium falciparum IMT 10500 harboring Pfcrt Q271E mutant gene and Ppcrt I371R mutant gene and Pfnhe-1 ms4760 microsatellite mutant assessed as incorporation of [3H]hypoxanthine after 48 hrs by scintillation counter
Plasmodium falciparum [27] = assay: Antimalarial activity against Plasmodium falciparum IMT 16332 harboring Ppcrt M74I, N75E, K76T, A220S, Q271E mutant gene, Pmdr1 N86Y mutant gene assessed as incorporation of [3H]hypoxanthine after 48 hrs by scintillation counter
Plasmodium falciparum [28] = assay: Antimalarial activity against Plasmodium falciparum IMT K14 harboring Ppcrt M74I, N75E, K76T, A220S, Q271E, N326S mutant gene, Pmdr1 Y184F, S1034C, N1042D, D1246Y mutant gene and Pfmrp H191Y and S437A mutant gene assessed as incorporation of [3H]hypoxanthine after 48 hrs by scintillation counter
Plasmodium falciparum [29] = assay: Antimalarial activity against Plasmodium falciparum IMT K4 harboring Ppcrt M74I, N75E, K76T, A220S, Q271E, N326S mutant gene, Pmdr1 S1034C, N1042D mutant gene and Pfmrp H191Y and S437A mutant gene assessed as incorporation of [3H]hypoxanthine after 48 hrs by scintillation counter
Plasmodium falciparum [30] = assay: Antimalarial activity against Plasmodium falciparum IMT L1 harboring Ppcrt M74I, N75E, K76T, A220S, Q271E mutant gene, Pmdr1 N86Y mutant gene and Pfmrp H191Y and S437A mutant gene assessed as incorporation of [3H]hypoxanthine after 48 hrs by scintillation counter
Plasmodium falciparum [31] = assay: Antimalarial activity against Plasmodium falciparum IMT Vol harboring Ppcrt M74I, N75E, K76T, A220S, Q271E, N326S mutant gene, Pmdr1 N86Y mutant gene and Pfmrp H191Y and S437A mutant gene assessed as incorporation of [3H] hypoxanthine after 48 hrs by scintillation counter

SMILES: CC(C)c1c(C(=O)Nc2ccccc2)c(-c2ccccc2)c(-c2ccc(F)cc2)n1CC[C@@H](O)C[C@@H](O)CC(=O)O [ATORVASTATIN]
- IC50 (Plasmodium falciparum [1]): 2.5 µM
- IC50 (Plasmodium falciparum [2]): 2.5 µM
- IC50 (Plasmodium falciparum [3]): 2.5 µM
- IC50 (Plasmodium falciparum [4]): 2.5 µM
- IC50 (Plasmodium falciparum [5]): 2.5 µM
- IC50 (Plasmodium falciparum [6]): 2.5 µM
- IC50 (Plasmodium falciparum [7]): 2.5 µM
- IC50 (Plasmodium falciparum [8]): 2.5 µM
- IC50 (Plasmodium falciparum [9]): 2.5 µM
- IC50 (Plasmodium falciparum [10]): 2.5 µM
- IC50 (Plasmodium falciparum [11]): 2.5 µM
- IC50 (Plasmodium falciparum [12]): 2.5 µM
- IC50 (Plasmodium falciparum [13]): 2.5 µM
- IC50 (Plasmodium falciparum [14]): 2.5 µM
- IC50 (Plasmodium falciparum [15]): 9 µM
- IC50 (Plasmodium falciparum [16]): 5.9 µM
- IC50 (Plasmodium falciparum [17]): 5.9 µM
- IC50 (Plasmodium falciparum [18]): 5.9 µM
- IC50 (Plasmodium falciparum [19]): 8.2 µM
- IC50 (Plasmodium falciparum [20]): 8 µM
- IC50 (Plasmodium falciparum [21]): 5.8 µM
- IC50 (Plasmodium falciparum [22]): 7.1 µM
- IC50 (Plasmodium falciparum [23]): 5.9 µM
- IC50 (Plasmodium falciparum [24]): 7.3 µM
- IC50 (Plasmodium falciparum [25]): 6.9 µM
- IC50 (Plasmodium falciparum [26]): 6.7 µM
- IC50 (Plasmodium falciparum [27]): 6 µM
- IC50 (Plasmodium falciparum [28]): 6.9 µM
- IC50 (Plasmodium falciparum [29]): 6.9 µM
- IC50 (Plasmodium falciparum [30]): 8.2 µM
- IC50 (Plasmodium falciparum [31]): 7.6 µM
